Reference: article PMC4450297, “Screening Active Compounds from Garcinia Species Native to China Reveals Novel Compounds Targeting the STAT/JAK Signaling Pathway” (BioMed Research International, 2015)

What was measured:
Test in all cases: Cell panel screen (CellTiter-Glo)
Assay type in all cases: cell-based, human
[1] = test system: NCI-H2347; conditions: NCI-H2347 (Lung), 20 micromolar, 72 hrs
Protocol: (§1) All cells were obtained from the cell bank of the American Type Culture Collection (ATCC) and cultured in the supplier's recommended media supplemented with 10% FBS. The cell panel screen was measured using the CellTiter-Glo assay (Promega, Madison, WI) following a standard protocol. Briefly, cancer cells were seeded in 96-well plates and cultured overnight at 37°C with or without 5% CO2 in an incubator. Each compound was dissolved with limited DMSO and diluted to a certain concentration with culture medium and then added to the corresponding well of the cell plate. The final concentration of compound was 20 μM. The control cells (without treatment) received the same amount of DMSO and were incubated under the same conditions. After 72 h cultivation, 100 μL of the CellTiter-Glo reagent was added directly to each well for 10-minute incubation. The plate was then read on a FlexStation 3 microplate luminometer (Molecular Devices, USA) to monitor the luminescence signal generated by the luciferase-catalyzed reaction of luciferin and ATP. The percent of growth inhibition was calculated using the following formula: (untreated cells − treated cells)/(untreated cells − background without cells) ∗ 100.

[2] = test system: CCF-STTG1; conditions: CCF-STTG1 (Brain), 20 micromolar, 72 hrs
Protocol: as §1

[3] = test system: A498; conditions: A498 (listed under Lung), 20 micromolar, 72 hrs
Protocol: as §1

[4] = test system: T47D; conditions: T47D (Breast), 20 micromolar, 72 hrs
Protocol: as §1

[5] = test system: HPAF-II; conditions: HPAF-II (Pancreas), 20 micromolar, 72 hrs
Protocol: as §1

[6] = test system: NCI-H1694; conditions: NCI-H1694 (Lung), 20 micromolar, 72 hrs
Protocol: as §1

[7] = test system: HCC1569; conditions: HCC1569 (Breast), 20 micromolar, 72 hrs
Protocol: as §1

[8] = test system: HCC1937; conditions: HCC1937 (Breast), 20 micromolar, 72 hrs
Protocol: as §1

[9] = test system: RL95; conditions: RL95 (Uterus), 20 micromolar, 72 hrs
Protocol: as §1

[10] = test system: J82; conditions: J82 (Urinary bladder), 20 micromolar, 72 hrs
Protocol: as §1

[11] = test system: Colo 205; conditions: Colo 205, 20 micromolar, 72 hrs
Protocol: as §1

[12] = test system: HGC-27; conditions: HGC-27 (Stomach), 20 micromolar, 72 hrs
Protocol: as §1

[13] = test system: T98G; conditions: T98G (Brain), 20 micromolar, 72 hrs
Protocol: as §1

[14] = test system: NCI-H1623; conditions: NCI-H1623 (Lung), 20 micromolar, 72 hrs
Protocol: as §1

[15] = test system: NCI-H524; conditions: NCI-H524 (Lung), 20 micromolar, 72 hrs
Protocol: as §1

[16] = test system: NCI-H28; conditions: NCI-H28 (Lung), 20 micromolar, 72 hrs
Protocol: as §1

[17] = test system: CW-2; conditions: CW-2 (Colon), 20 micromolar, 72 hrs
Protocol: as §1

[18] = test system: BT-474; conditions: BT-474 (Breast), 20 micromolar, 72 hrs
Protocol: as §1

[19] = test system: ChaGo-K-1; conditions: ChaGo-K-1 (Lung), 20 micromolar, 72 hrs
Protocol: as §1

[20] = test system: NCI-H2405; conditions: NCI-H2405 (Lung), 20 micromolar, 72 hrs
Protocol: as §1

[21] = test system: HT-1197; conditions: HT-1197 (Urinary bladder), 20 micromolar, 72 hrs
Protocol: as §1

[22] = test system: MSTO-211-H; conditions: MSTO-211-H (Lung), 20 micromolar, 72 hrs
Protocol: as §1

[23] = test system: BT-549; conditions: BT-549 (Breast), 20 micromolar, 72 hrs
Protocol: as §1

[24] = test system: Panc 03.27; conditions: Panc 03.27 (Pancreas), 20 micromolar, 72 hrs
Protocol: as §1

[25] = test system: C8166; conditions: C8166 (Leukemia), 20 micromolar, 72 hrs
Protocol: as §1

[26] = test system: HCC1395; conditions: HCC1395 (Breast), 20 micromolar, 72 hrs
Protocol: as §1

[27] = test system: A704; conditions: A704 (Kidney), 20 micromolar, 72 hrs
Protocol: as §1

[28] = test system: HCC1599; conditions: HCC1599 (Breast), 20 micromolar, 72 hrs
Protocol: as §1

[29] = test system: HEC-1-A; conditions: HEC-1-A (Uterus), 20 micromolar, 72 hrs
Protocol: as §1

[30] = test system: SW13; conditions: SW13 (Adrenal gland), 20 micromolar, 72 hrs
Protocol: as §1

[31] = test system: C3A; conditions: C3A (Liver), 20 micromolar, 72 hrs
Protocol: as §1

[32] = test system: ZR-75-30; conditions: ZR-75-30 (Breast), 20 micromolar, 72 hrs
Protocol: as §1

[33] = test system: M059J; conditions: M059J (Brain), 20 micromolar, 72 hrs
Protocol: as §1

[34] = test system: NCI-H1770; conditions: NCI-H1770 (Lung), 20 micromolar, 72 hrs
Protocol: as §1

[35] = test system: Bel-7402; conditions: Bel-7402 (Liver), 20 micromolar, 72 hrs
Protocol: as §1

[36] = test system: TCCSUP; conditions: TCCSUP (Urinary bladder), 20 micromolar, 72 hrs
Protocol: as §1

SMILES	Percent Inhibition [1] [%]	Percent Inhibition [2] [%]	Percent Inhibition [3] [%]	Percent Inhibition [4] [%]	Percent Inhibition [5] [%]	Percent Inhibition [6] [%]	Percent Inhibition [7] [%]	Percent Inhibition [8] [%]	Percent Inhibition [9] [%]	Percent Inhibition [10] [%]	Percent Inhibition [11] [%]	Percent Inhibition [12] [%]	Percent Inhibition [13] [%]	Percent Inhibition [14] [%]	Percent Inhibition [15] [%]	Percent Inhibition [16] [%]	Percent Inhibition [17] [%]	Percent Inhibition [18] [%]	Percent Inhibition [19] [%]	Percent Inhibition [20] [%]	also measured
CC1(C)C=Cc2cc3c(=O)c4c(O)cc(O)cc4oc3c(O)c2O1 [Go-11]	10	44	37	35	18	73	41	21	72	52	11	54	68	-10	83	33	61	31	75	3	Percent Inhibition [21]: 39%; Percent Inhibition [22]: 66%; Percent Inhibition [23]: 46%; Percent Inhibition [24]: 39%; Percent Inhibition [25]: 71%; Percent Inhibition [26]: 68%; Percent Inhibition [27]: 24%; Percent Inhibition [28]: 49%; Percent Inhibition [29]: 38%; Percent Inhibition [30]: 24%; Percent Inhibition [31]: 19%; Percent Inhibition [32]: 62%; Percent Inhibition [33]: 78%; Percent Inhibition [34]: 38%; Percent Inhibition [35]: 16%; Percent Inhibition [36]: 43%
CCOC(=O)C1OC(Oc2cc(O)c3c(c2)OC(c2ccc(O)c(O)c2)CC3=O)C(O)C(O)C1O (stereo not drawn) [gly-3]	4	-4	-4	-4	-7	1	-8	3	6	-7	-6	-11	-3	8	-25	-18	4	-24	-13	-3	Percent Inhibition [21]: 11%; Percent Inhibition [22]: -3%; Percent Inhibition [23]: -14%; Percent Inhibition [24]: 2%; Percent Inhibition [25]: -1%; Percent Inhibition [26]: 9%; Percent Inhibition [27]: -17%; Percent Inhibition [28]: -18%; Percent Inhibition [29]: -19%; Percent Inhibition [30]: -5%; Percent Inhibition [31]: -4%; Percent Inhibition [32]: 13%; Percent Inhibition [33]: 1%; Percent Inhibition [34]: -10%; Percent Inhibition [35]: -5%; Percent Inhibition [36]: -1%
COc1c(CC=C(C)C)c(O)c2c(=O)c3ccc(O)c(O)c3oc2c1CC=C(C)C [gl-9]	82	92	86	90	85	100	93	94	98	99	97	97	98	85	99	86	99	94	97	93	Percent Inhibition [21]: 97%; Percent Inhibition [22]: 98%; Percent Inhibition [23]: 96%; Percent Inhibition [24]: 92%; Percent Inhibition [25]: 96%; Percent Inhibition [26]: 98%; Percent Inhibition [27]: 88%; Percent Inhibition [28]: 95%; Percent Inhibition [29]: 85%; Percent Inhibition [30]: 99%; Percent Inhibition [31]: 77%; Percent Inhibition [32]: 99%; Percent Inhibition [33]: 92%; Percent Inhibition [34]: 93%; Percent Inhibition [35]: 96%; Percent Inhibition [36]: 96%
CC(C)=CCC/C(C)=C/Cc1c(O)c(CC=C(C)C)c2c(c1O)C(=O)C1=C[C@@H]3C[C@H]4C(C)(C)O[C@@](C/C=C(/C)C(=O)O)(C3=O)[C@@]14O2 [GB16]	98	99	100	99	98	100	99	100	99	99	99	100	99	99	98	99	99	99	99	99	Percent Inhibition [21]: 99%; Percent Inhibition [22]: 100%; Percent Inhibition [23]: 99%; Percent Inhibition [24]: 99%; Percent Inhibition [25]: 100%; Percent Inhibition [26]: 99%; Percent Inhibition [27]: 99%; Percent Inhibition [28]: 100%; Percent Inhibition [29]: 99%; Percent Inhibition [30]: 99%; Percent Inhibition [31]: 99%; Percent Inhibition [32]: 100%; Percent Inhibition [33]: 99%; Percent Inhibition [34]: 100%; Percent Inhibition [35]: 99%; Percent Inhibition [36]: 100%
